# pIC50: −log10 of the molar value.
# What was measured:
# DBA/1 mice = experiment: 3AC i.p. daily for 7 days in DBA/1 mice: Western blot and flow cytometry; format: in vivo, mouse
# Source text: Mice. All animals were maintained in pathogen-free conditions and all animal procedures followed protocols approved by the Institutional Animal Care and Use Committee (IACUC) of Rhode Island Hospital. The SHIP-1 knockout (KO) mice (Inpp5d<tm1Dmt>/J, Stock #003534) on a mixed genetic background (129/C57BL/6) were purchased from the Jackson Laboratory, Bar Harbor, ME, and backcrossed with C57BL/6 mice (Stock #000664, the Jackson Laboratory) for 5 generations. Heterozygous (SHIP-1^+/−) mice were intercrossed to obtain homozygous progeny (SHIP-1^−/−). Wild-type (WT) littermates (SHIP-1^+/+) of same age as SHIP1 KO mice were used as controls. DBA/1J mice (Stock #000670) were also purchased from the Jackson Laboratory.
# Chemicals and reagents. Specific SHIP-1 inhibitor 3AC was purchased from Echelon Biosciences (Salt Lake, UT) and suspended in 0.3% Klucel (Sigma-Aldrich, St. Louis, MO) solution. The 3AC suspension was stirred by sonication and sterile filtered before injection. The 0.3% Klucel solution was used as a vehicle control.
# Immunoblotting. Splenocytes were isolated from C57BL/6 WT and SHIP1 KO mice, and DBA/1 mice with or without 3AC treatment. The cells were then lysed with RIPA buffer containing Halt™ Protease and Phosphatase Inhibitor Cocktail (Thermo Scientific, Rockford, IL). Total lysates (30 μg/sample) were loaded on an SDS-PAGE gel and transferred onto an Immuno-Blot PVDF membrane (Bio-Rad, Hercules, CA). The membranes were first blocked and then probed with antibodies in TBS (20 mM Tris and 150 mM NaCl) containing 0.1% Tween-20 and 5% skim milk. Antibodies against SHIP-1 (P1C1) (sc-8425) and β-Actin (2A3) were purchased from Santa Cruz Biotechnology (Dallas, TX). Blots were developed by using a goat anti-mouse IgG antibody conjugated IRDye 800CW and imaged with an Odyssey imager (LI-COR, Lincoln, NE).
# Flow cytometry analysis. Peripheral blood (PB) samples were collected from the retro-orbital sinus of mice on the indicated days. Bone marrow (BM) of femurs and tibiae and spleens were isolated from sacrificed mice. Following treatment with red blood cell lysing buffer (Sigma-Aldrich) and filtration through a nylon mesh, peripheral blood mononuclear cells (PBMCs), splenocytes, and whole BM cells were isolated and suspended in phosphate-buffered saline (PBS) containing 2% FBS. These cells were labeled with fluorophore-conjugated antibodies and subjected to flow cytometry. All antibodies used in flow cytometry were purchased from BioLegend (San Diego, CA): Alexa Fluor 488 anti-mouse CD11b, APC anti-mouse Gr-1, PE anti-mouse CD3e, APC/Cy7 anti-mouse B220, Alexa Flour 488 anti-mouse CD4, and APC anti-mouse CD25. 4′,6-Diamidino-2-Phenylindole (DAPI) was used to exclude DAPI+ dead cells during flow cytometry analysis. Data were acquired using LSR II flow cytometer (BD Biosciences) and analyzed with FlowJo software (FlowJo, Ashland, OR).
# Statistical analysis. Data are shown as the mean values±standard error of the mean (SEM). The significance of difference was calculated with unpaired two-tailed Student's t-test or one-way ANOVA when comparing more than 2 groups by using GraphPad Prism (GraphPad Software, Inc., La Jolla, CA). P values less than 0.05 were considered to be statistically significant.
# [1] = tested on: collagen-induced arthritis (CIA) in DBA/1 mice; experiment: Collagen-induced arthritis (CIA) prevention model, 3AC pre-treatment; format: in vivo, mouse
# [2] = tested on: collagen-induced arthritis (CIA) in DBA/1 mice; experiment: Collagen-induced arthritis (CIA) intervention model, 3AC after second immunization; format: in vivo, mouse
# [3] = tested on: CIA in C57BL/6 WT and SHIP1 KO mice; experiment: CIA in C57BL/6 WT and SHIP1 KO mice; format: in vivo, mouse
# SHIP1 = target: T1, SHIP1 (Homo sapiens, UniProt Q92835); conditions: read-out: IC50 SHIP-1; cited from earlier work
# T1 sequence (Q92835 1-1189): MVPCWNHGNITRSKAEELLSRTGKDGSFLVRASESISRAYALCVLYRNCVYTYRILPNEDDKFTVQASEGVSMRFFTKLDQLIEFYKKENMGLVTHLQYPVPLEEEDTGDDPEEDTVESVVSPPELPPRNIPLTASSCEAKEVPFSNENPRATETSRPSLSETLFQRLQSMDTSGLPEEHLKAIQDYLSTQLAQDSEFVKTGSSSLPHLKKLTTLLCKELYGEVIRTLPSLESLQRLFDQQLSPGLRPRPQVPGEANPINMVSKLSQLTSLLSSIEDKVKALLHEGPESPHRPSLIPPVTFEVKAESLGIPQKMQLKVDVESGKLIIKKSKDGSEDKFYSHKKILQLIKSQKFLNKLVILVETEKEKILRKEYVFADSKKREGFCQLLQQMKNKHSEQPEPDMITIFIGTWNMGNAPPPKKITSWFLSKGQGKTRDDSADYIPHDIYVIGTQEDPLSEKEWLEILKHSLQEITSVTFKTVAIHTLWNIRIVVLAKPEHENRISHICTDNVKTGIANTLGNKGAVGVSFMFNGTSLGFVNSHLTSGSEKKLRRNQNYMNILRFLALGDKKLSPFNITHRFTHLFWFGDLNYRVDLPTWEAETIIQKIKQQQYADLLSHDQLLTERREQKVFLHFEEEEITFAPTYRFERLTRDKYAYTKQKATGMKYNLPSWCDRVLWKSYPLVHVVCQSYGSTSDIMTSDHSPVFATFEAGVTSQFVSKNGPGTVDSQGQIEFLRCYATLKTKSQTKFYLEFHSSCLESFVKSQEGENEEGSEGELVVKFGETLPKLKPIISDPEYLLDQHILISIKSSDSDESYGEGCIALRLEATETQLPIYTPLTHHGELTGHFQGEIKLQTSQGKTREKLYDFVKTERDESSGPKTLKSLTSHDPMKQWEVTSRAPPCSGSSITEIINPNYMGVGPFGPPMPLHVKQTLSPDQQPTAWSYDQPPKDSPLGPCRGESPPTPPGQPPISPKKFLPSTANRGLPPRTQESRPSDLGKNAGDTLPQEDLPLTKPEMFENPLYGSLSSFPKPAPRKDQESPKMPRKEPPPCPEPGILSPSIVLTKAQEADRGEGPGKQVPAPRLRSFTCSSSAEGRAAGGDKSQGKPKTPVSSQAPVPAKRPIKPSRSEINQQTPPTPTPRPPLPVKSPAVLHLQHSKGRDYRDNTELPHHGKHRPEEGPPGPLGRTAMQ
# [4] = tested on: wild-type (WT) C57BL/6 mice; conditions: cited from earlier work
# SHIP-1 = conditions: temporal inhibition of SHIP-1; cited from earlier work
# mice = conditions: as seen in SHIP-1 KO mice; cited from earlier work
# [5] = tested on: hematopoietic cancer cells; conditions: in vitro; cited from earlier work
# [6] = tested on: xenograft model of multiple myeloma; conditions: cited from earlier work
# [7] = i.p. daily for 7 days, DBA/1 mice
# [8] = 3AC daily for 7 days prior to CIA induction, vs vehicle
# [9] = 3AC daily for 7 days starting on day 27
compound,measurement,setting,value
"CC(C)CCC[C@@H](C)[C@H]1CC[C@H]2[C@@H]3CC[C@H]4C[C@H](N)CC[C@]4(C)[C@H]3CC[C@]12C [Compound 3AC, 3α-Aminocholestane]",CD3+ T cells in PB,DBA/1 mice; [7],significant reduction
same,CD11b+Gr-1+ MDSCs in BM,DBA/1 mice; [7],increase
same,CD11b+Gr-1+ MDSCs in peripheral blood (PB),DBA/1 mice; [7],increase
same,CD11b+Gr-1+ MDSCs in spleen (SP),DBA/1 mice; [7],increase
same,SHIP-1 protein depletion in splenocytes (Western blot),DBA/1 mice; [7],comparable to that in SHIP1 KO mice
same,Tregs in SP,DBA/1 mice; vs vehicle control mice,significantly elevated level
same,frequency of CD4+CD25+ Tregs in PB,DBA/1 mice; vs vehicle treated control mice,remained unchanged
same,CIA onset,[1]; [8],significant delay
same,severity of CIA (clinical score),[1]; [8],significant reduction
same,"misalignment, bone erosion and destruction of joint cartilage (radiographic assessment)",[1]; X-ray at day 63,nearly absent
same,time at which swelling and redness of limbs started to appear,"[1]; after first immunization, 3AC pre-treated DBA/1 mice",30 to 40 days
same,swollen and reddish front paws (photographic assessment),[1]; day 42,much less so
same,Tregs in the spleen,[1]; following 3AC injection,higher number
same,CD3+ T cells in peripheral blood,"[1]; till day 21, transient",decreased
same,MDSCs in peripheral blood,"[1]; till day 21, transient",significantly increased
same,bone erosion (Toluidine Blue),[1]; wrist joint of front paws,reduced bone erosion
same,cartilage damage (Safranin O),[1]; wrist joint of front paws,reduced cartilage damage
same,inflammatory cell infiltration in the arthritic joint (H&E),[1]; wrist joint of front paws,reduced inflammatory cell infiltration
same,CIA incidence,[2]; [9],significantly reduced
same,CIA severity (clinical score),[2]; [9],significantly reduced
same,number of total T cell in peripheral blood,[2]; day 34,Significantly and transiently decreasing
same,number of Tregs in peripheral blood,"[2]; mouse, in vivo",unchanged
same,number of Tregs in the spleen,"[2]; onset and endpoint of the experiment, vs control",Comparable number
same,number of MDSCs in peripheral blood,"[2]; vs vehicle-treated mice, day 34",Significantly but transiently increasing
same,incidence and severity of CIA in SHIP1 KO mice,[3]; SHIP1 KO mice treated with 3AC (data not shown),did not improve
same,CIA development in C57BL/6 WT mice,[3]; WT mice with 3AC pre-treatment,did not develop CIA
same,pIC50,SHIP1,~5.60
same,myeloid immunoregulatory cell compartment,[4]; WT C57BL/6 mice,significantly expand
same,ability of the immune system to prime allogeneic T cell responses,[4]; mouse models,impairs
same,SHIP-1 protein stability in cells,SHIP-1,reduces protein stability and induces protein degradation
same,pulmonary myeloid infiltration,mice,did not cause
same,apoptosis of hematopoietic cancer cells,[5],increases apoptosis
same,inflammation of peripheral tissues,[6],without association with severe inflammation of peripheral tissues
same,tumor cell growth,[6],reduces tumor cell growth

# From patent US12478643B2, “Compositions and methods for the prevention or treatment of rheumatoid arthritis” (Rhode Island Hospital, priority 2021, dated 2025)
